Assay type in all cases: cell-based, mouse
One test deals with murine CD4+ cells. Kind of test: Cytokine generation (ELISA) in murine CD4+ cells stimulated with anti-CD3 and anti-CD28. Particulars: for Influence on IL-10 / TNF release: CD4+ cells. The source says:
(§1) Experimental animals (C57BL/6 mice, BALB/c mice and Dark Agouti rats) were obtained from the Animal House Facility of the Institute for Biological Research “Sinisa Stanković”, Belgrade, Serbia. Spleen cells (SPC) were isolated from murine spleens and lymph node cells (LNC) were obtained from rat cervical lymph nodes of untreated animals. Draining lymph node cells (DLNC) were obtained from popliteal lymph nodes 8-10 days after immunization of rats with myelin basic protein (guinea pig MBP, kind gift from professor Alexander Fluegel, University of Goettingen, Germany) and complete Freund's adjuvant (CFA, Difco, Detroit, Mich.). The organs were mechanically disrupted, passed through 40-μm nylon mesh filter and the resulting suspension was collected by centrifugation. Red blood cells from single cell suspensions obtained from spleens were lysed using RBC Lysis Buffer (eBioscience, San Diego, Calif.). CD4+ cells were purified from SPC using biotin conjugated antibody specific for CD4 (eBioscience) and IMag SAv particles plus (BD Biosciences, San Diego, Calif.). Obtained purity of CD4 population was more than 97% as determined by flow cytometry. SPC and LNC were seeded at 5×10^6/ml/well, DLNC at 2.5×10^6/ml/well and CD4+ cells at 1×10^6/ml/well of 24-well plates. Cells infiltrating spinal cords (SC) were obtained from SC of rats immunized with MBP+CFA at the time when rats suffered from severe clinical signs of experimental autoimmune encephalomyelitis (EAE). Rats were perfused with sterile PBS, SC were homogenized, adjusted to 30% Percoll (Sigma-Aldrich) and overlaid on 70% Percoll gradient. Following centrifugation at 870 g for 50 min the SC cells (SCC) were recovered from the […] Percoll interface and washed in RPMI-1640 medium. SCC were seeded at 0.5×106/200 μl/well of 96-well plates. SPC and LNC were stimulated with 2.5 μg/ml concanavalin A (ConA, Sigma-Aldrich), DLNC with MBP (10 ng/ml), CD4+ cells with anti-CD3 and anti-CD28 antibody (1 μg/ml each, both from eBioscience) and SCC were left untreated.
Cytokine concentration in cell culture supernatants was determined by sandwich ELISA using MaxiSorp plates (Nunc, Rochild, Denmark) and anti-cytokine paired antibodies according to the manufacturer's instructions. Samples were analyzed in duplicate for murine/rat IL-17, murine IL-10, murine TNF, murine IL-4 (eBioscience), murine IFN-γ, rat IFN-γ, rat IL-4 (R&D, Minneapolis, Minn.), rat IL-10 and rat TNF (BD Biosciences). The results were calculated using standard curves made on the basis of known concentrations of the appropriate recombinant cytokines.
CD4+ cells were purified from C57BL/6 SPC and stimulated with anti-CD3 and anti-CD28 antibodies in the presence of various concentrations of Saq-NO for 24 hours. The influence of Saq-NO on cytokine generation was compared to its influence on CD4+ cell viability and to the influence of Saq on the same parameters. […] Thus, Saq-NO directly affects T cell cytokine production.
On the technique in general: An ELISA detects its analyte on a solid surface through an enzyme-linked reagent.

A further test deals with murine SPC. Nature of the test: Apoptosis in murine SPC, Annexin V-FITC staining and cytofluorimetry.
Text: as §1
The cells positive for Annexin V-FITC were considered apoptotic. The stained cells were acquired by a FACSCalibur cytometer (BD Biosciences) and analyzed using CellQuest Software (BD Biosciences).

Test [1] has as its system S6 phosphorylation (S6 kinase activity). Nature of the test: S6 phosphorylation in murine CD4+ cells (immunoblot). Particulars: anti-CD3 and anti-CD28, 24 hours. The procedure:
Whole-cell lysates were prepared in a solution containing 62.5 mM Tris-HCl (pH 6.8, 2% w/v sodium dodecyl sulfate (SDS), 10% glycerol, 50 mM dithiothreitol (DTT), 0.01% w/v bromophenol blue, 1 mM phenylmethanesulphonyl fluoride or phenylmethylsulphonyl fluoride (PMSF), 1 μg/ml aprotinine, 2 mM EDTA and samples containing 20 μg of proteins (measured by Lowry protein assay) were electrophoresed on a 12% SDS-polyacrylamide gel. The samples were electro-transferred to polyvinylidene difluoride membranes at 5 mA/cm2, using semi-dry blotting system (Fastblot B43, Biorad, Muenchen, Germany). The blots were blocked with 5% w/v nonfat dry milk in PBS 0.1% Tween-20 and probed with specific antibodies to S6 and phosphorylated-S6 (Ser240/244) at 1:500 dilution (both from Cell Signaling Technology, Boston, Mass.), followed by incubation with secondary antibody at 1:10000 dilution (ECL donkey anti-rabbit horseradish peroxidase (HRP)-linked, GE Healthcare, Buckinghamshire, England, UK). […]
In an attempt to determine intracellular signaling that might be responsible for the observed influence of Saq-NO on the cytokines generation, level of S6 phosphorylation as the measure of S6 kinase activity was detected by immunoblot. CD4+ cells were stimulated with anti-CD3 and anti-CD28 in the presence of Saq-NO or Saq for 24 hours and cell lysates were subsequently obtained and analyzed.

[2] abbreviates: anti-CD3 and anti-CD28, 24 hours.

Molecules are shown by their SMILES. Marks after values point to notes of the source that are not given here.

Take `CC(C)(C)NC(=O)[C@@H]1C[C@@H]2CCCC[C@@H]2CN1C[C@@H](O)[C@H](Cc1ccccc1)NC(=O)[C@H](CC(N)=O)NC(=O)c1ccc2ccccc2n1` [Saq, (2S)—N-[(2S,3R)-4-[(3S)-3-(tert-butylcarbamoyl)-decahydroisoquinolin-2-iy]-3-hydroxy-1-phenylbutan-2-il]-2-(quinolin-2-ylformamido)butanediamide, reference compound]: the “Influence on IL-10” value in the test with murine CD4+ cells (setting [2]) was “similarly potent”. In the test on murine CD4+ cells (setting [2]), the TNF release result was “did not modulate”. In the test with murine CD4+ cells (concentrations of 2.5 and 5 mM), the “IL-17 secretion from purified CD4+ T cells at low concentrations” value is given as “inhibitory effect”. Moreover, the “% of AnnV+ cells” value in the test on murine SPC (C 5 μg/ml) is given as 27.5 +/− 4.8%; with murine SPC (C 10 μg/ml), 31.6 +/− 6.4%; with murine SPC (C 20 μg/ml), 49.8 +/− 4.8* %. Also, the S6 phosphorylation entry in test [1] was “much weaker”.
As to `CC(C)(C)NC(=O)C1C[C@@H]2CCCC[C@@H]2CN1CC(O[N+](=O)[O-])[C@H](Cc1ccccc1)NC(=O)C(CC(N)=O)NC(=O)c1ccc2ccccc2n1` (some centres unmarked) [Saq-NO, nitric ester of Saquinavir], the “Generation of IFN-g, IL-4 and IL-17” value in the test on murine CD4+ cells (CD4+ cells of C57BL/6 SPC, anti-CD3 and anti-CD28, 24 hours) was “more effectively than Saq”. Also, the “Influence on IL-10” value with murine CD4+ cells (setting [2]) is “similarly potent”. The TNF release result in the test with murine CD4+ cells (setting [2]) is recorded as “did not modulate”. The “% of AnnV+ cells” value in the test with murine SPC (C 5 μg/ml) is given as 30.2 +/− 7.5%; in the test with murine SPC (C 10 μg/ml), 38.4 +/− 4.8%; with murine SPC (C 20 μg/ml), 44.5 +/− 11.5%. Also, the S6 phosphorylation result in test [1] was “diminished”.

For the origin of these results see patent US20150283127A1, “SAQUINAVIR-NO FOR IMMUNOMODULATION” (ONCONOX APS, priority 2012, published 2015).
